# Test results taken from US20160106102A1, “KNOWN AND NEW HETEROCYCLIC COMPOUNDS AS PEST CONTROL AGENTS” (BAYER CROPSCIENCE AKTIENGESELLSCHAFT, priority 2013, published 2016).
# System: not listed separately
# Experiment: log P determination by LC-MS in the acidic range
# Format: physicochemical
# Conditions: LC-MS in the acidic range
# Source text: The LC-MS determination in the acidic range is effected at pH 2.7 using 0.1% aqueous formic acid and acetonitrile (contains 0.1% formic acid) as eluents, linear gradient from 10% acetonitrile to 95% acetonitrile. Alternatively, the determination is effected in the acidic range at pH 2.3 using 0.1% aqueous phosphoric acid and acetonitrile as eluents; linear gradient from 10% acetonitrile to 95% acetonitrile.
row,Structure (SMILES),log P (acid)
1,Cc1cc(NC(=O)c2cncc(Br)c2)nn1Cc1cccc(F)c1 [Compound I-1-107],2.71
2,O=C(Nc1nn(Cc2ncccn2)cc1Cl)c1cccnc1 [Compound I-1-137],0.58
3,Cc1cc(NC(=O)c2cncc(Br)c2)nn1Cc1ccccc1F [Compound I-1-101],2.69
4,Cc1cc(NC(=O)c2cnc(Cl)c(Cl)c2)nn1Cc1cccc(F)c1 [Compound I-1-96],3.26
5,Cc1cc(NC(=O)c2cccnc2)nn1CC(=O)O [Compound I-1-115],0.09
6,Cc1cc(N(Cc2ccc3nsnc3c2)C(=O)c2cccnc2)nn1Cc1ccc2nsnc2c1 [Compound I-1-343],2.57
7,COc1ccc(-n2nc(NC(=O)c3cccnc3)cc2C)cc1 [Compound I-1-200],1.34
8,N#Cc1ccccc1-n1ccc(NC(=O)c2cccnc2)n1 [Compound I-1-117],1.42
9,Cc1ccc(-n2nc(NC(=O)c3cccnc3)cc2C)cc1 [Compound I-1-193],2.02
10,CSc1c(Cl)c(NC(=O)c2cccnc2)nn1C [Compound I-1-201],1.25
11,COc1ccc(C(=O)Nc2cc(C)n(Cc3ccccc3F)n2)cn1 [Compound I-1-105],2.52
12,Cc1cc(NC(=O)c2cccnc2)nn1-c1ccccn1 [Compound I-1-230],2.19
13,CCOC(=O)Cn1nc(NC(=O)c2cncc(F)c2)cc1C [Compound I-1-59],1.53
14,Cc1cc(NC(=O)c2ccc(Cl)nc2)nn1Cc1cccc(F)c1 [Compound I-1-106],2.6
15,Cc1ccc(C(=O)Nc2cc(C)n(Cc3ccc(F)cc3)n2)cn1 [Compound I-1-109],1.76
16,Cc1cc(NC(=O)c2ccnnc2)nn1Cn1cccn1 [Compound I-1-240],0.91
17,CCOC(=O)c1cn(Cc2ccccc2)nc1NC(=O)c1cccnc1 [Compound I-1-272],0.79

# Same assay, conditions: Table 2, compounds of the formula (I-2); acidic range pH 2.7 or pH 2.3
row,Structure (SMILES),log P (acid)
1,Cc1nc(NC(=O)c2cccnc2)nn1C(C)C [Compound I-2-20],0.44
2,Cc1nc(-n2cnc(NC(=O)c3cccnc3)n2)nc(C)c1C [Compound I-2-25],1.07
3,CCn1nc(NC(=O)c2cccnc2)nc1SC [Compound I-2-12],0.71
4,CCOc1nc(OCC)nc(-n2cnc(NC(=O)c3cccnc3)n2)n1 [Compound I-2-10],1.41
5,O=C(Nc1nc(Cl)n(-c2ccccc2)n1)c1cccnc1 [Compound I-2-27],1.58

# Same assay, conditions: Table 3; HPLC on reversed-phase column (C 18), 55° C., acidic range (pH 2.7 or pH 2.3)
row,Structure (SMILES),log P (acid)
1,Cc1nn(-c2ccccc2)nc1NC(=O)c1cccnc1 [Compound I-3-11],1.82
2,O=C(Nc1nn(-c2ccc(Cl)cc2Cl)nc1C(F)(F)F)c1cccnc1 [Compound I-3-8],2.97
3,O=C(Nc1cnn(-c2ncc(Cl)cc2Cl)n1)c1cccnc1 [Compound I-3-15],1.83
4,Cc1nn(-c2cc(Cl)ccc2Cl)nc1NC(=O)c1cccnc1 [Compound I-3-22],2.26
5,O=C(Nc1nn(-c2ncccc2Cl)nc1Cl)c1cccnc1 [Compound I-3-21],1.51
6,Cc1nn(-c2ccc(Cl)cc2Cl)nc1NC(=O)c1cccnc1 [Compound I-3-19],2.24
7,O=C(Nc1nn(-c2ccccc2Cl)nc1Cl)c1cccnc1 [Compound I-3-13],2.04
8,O=C(Nc1cnn(-c2ccc(Cl)cc2)n1)c1cccnc1 [Compound I-3-4],2.43
9,O=C(Nc1nn(-c2ccccc2)nc1C(F)(F)F)c1cccnc1 [Compound I-3-12],2.44

# Same assay, conditions: amines of the formula (II-1); acidic range pH 2.7 (0.1% formic acid/acetonitrile) or pH 2.3 (0.1% phosphoric acid/acetonitrile)
row,Structure (SMILES),log P (acid)
1,Cc1cc(N)nn1CC(=O)Cc1ccccc1Cl [II-1-58],1.39
2,Cc1cc(C)nc(Cn2nc(N)cc2C)n1 [II-1-9],0.42
3,Cc1ccnc(Cn2nc(N)cc2C)n1 [II-1-16],0.02
4,Cc1cc(N)nn1CC1CC1(Cl)Cl (centres unmarked) [II-1-53],1.12
5,Cc1cc(N)nn1CSc1ncccn1 [II-1-51],0.49
6,C#CCn1nc(N)cc1C1CC1 [II-1-4],0.63
7,Cc1cc(N)nn1Cn1ccc(C(F)(F)F)n1 [II-1-42],1.51
8,COc1nn(Cn2nc(N)cc2C)c(=O)n1C1CC1 [II-1-47],0.72
9,Cc1ccnn1Cn1nc(N)cc1C [II-1-39],0.52
10,Cc1cc(N)nn1CC=C(Cl)Cl [II-1-56],1.13
11,Cc1cc(N)nn1Cc1cccc(OC(F)(F)F)c1 [II-1-11],1.39
12,Cc1cc(N)nn1Cn1ccnn1 [II-1-45],<−0.23
13,Cc1cc(N)nn1Cc1ncccc1C#N [II-1-25],0.21
14,Cc1cc(N)nn1C(F)F [II-1-27],0.47
15,Nc1cc(Cl)n(Cc2ncccn2)n1 [II-1-36],0.49
16,Cc1cc(N)nn1Cn1c(=O)n(C)c(=O)n1C [II-1-48],0.03
17,Cc1cc(N)nn1Cn1nc(C2CC2)n(C2CC2)c1=O [II-1-50],0.98
18,CCc1cc(N)nn1Cc1ccc(Cl)nc1 [II-1-19],1.11
19,Cc1cc(N)nn1Cn1nc(C)n(C)c1=O [II-1-46],<−0.23

# Same assay, conditions: pH 2.7, LC-MS in the acidic range; read-out: log P (acid)
row,Structure (SMILES),chromatographic logP
1,"COC(=O)c1cc(NC(=O)c2cncc(F)c2)nn1C [Compound I-1-134, Methyl 3-{[(5-fluoropyridin-3-yl)carbonyl]amino}-1-methyl-1H-pyrazole-5-carboxylate]",1.5
2,"Cc1cc(NC(=O)c2cccnc2)nn1C(=O)C1CC1 [Compound I-1-121, N-[1-(Cyclopropylcarbonyl)-5-methyl-1H-pyrazol-3-yl]nicotinamide]",1.65

# Same assay, conditions: pH 2.7, amines of the formula (II-1); acidic range pH 2.7 (0.1% formic acid/acetonitrile) or pH 2.3 (0.1% phosphoric acid/acetonitrile); read-out: log P (acid)
row,Structure (SMILES),chromatographic logP
1,"Cc1cc(N)nn1Cc1ncccn1 [II-1-23, 5-Methyl-1-(pyrimidin-2-ylmethyl)-1H-pyrazole-3-amine]",< -0.23

# Same assay, conditions: pH 2.7, values given in the synthesis examples and NMR lists; read-out: HPLC-MS: log P
row,Structure (SMILES),chromatographic logP
1,"COC(=O)c1cc(NC(=O)c2cncc(F)c2)nn1C [Compound I-1-134, Methyl 3-{[(5-fluoropyridin-3-yl)carbonyl]amino}-1-methyl-1H-pyrazole-5-carboxylate]",1.5
2,Cc1cc(N)nn1C(=O)OC(C)(C)C [tert-Butyl 3-amino-5-methyl-1H-pyrazole-1-carboxylate],1.23
3,"Cc1cc(NC(=O)c2cccnc2)nn1C(=O)C1CC1 [Compound I-1-121, N-[1-(Cyclopropylcarbonyl)-5-methyl-1H-pyrazol-3-yl]nicotinamide]",1.65
4,Cc1cc(C(=O)O)nn1Cc1ncccn1 [5-Methyl-1-(pyrimidin-2-ylmethyl)-1H-pyrazole-3-carboxylic acid],0.45
5,Cc1cc(N)nn1-c1ncccn1 [5-Methyl-1-(pyrimidin-2-yl)-1H-pyrazole-3-amine],0.5
6,"Cc1cc(N)nn1Cc1ncccn1 [II-1-23, 5-Methyl-1-(pyrimidin-2-ylmethyl)-1H-pyrazole-3-amine]",< -0.23
7,"Cc1cn(Cc2ncccn2)nc1N1C(=O)c2ccccc2C1=O [2-[4-Methyl-1-(pyrimidin-2-ylmethyl)-1H-pyrazol-3-yl]-1H-isoindole-1,3(2H)-dione]",1.58
8,"O=C1c2ccccc2C(=O)N1c1cc(Br)n(Cc2ncccn2)n1 [2-[5-Bromo-1-(pyrimidin-2-ylmethyl)-1H-pyrazol-3-yl]-1H-isoindole-1,3(2H)-dione]",2.02

# System: Myzus persicae
# Experiment: Myzus persicae - sachet test
# Format: in vivo
# Conditions: application rate of 6 ppm in nutrient medium; 100% = all animals killed
# Experimental: Myzus persicae—Sachet Test Solvent: 2% by vol. of N-methylpyrrolidone • 2% by vol. of diacetone alcohol To produce an appropriate active ingredient formulation, the active ingredient is mixed with the specified amounts of solvent and the concentrate is diluted to the desired concentration with water. The active ingredient formulation is added to a specific nutrient medium in the desired concentration by pipetting. This plate is sealed and combined with a further plate populated with the green peach aphid (Myzus persicae). After the desired time, the kill in % is determined. 100% means that all the animals have been killed; 0% means that no animals have been killed.
row,Structure (SMILES),efficacy (kill in %)
1,COC(=O)CCCn1nc(NC(=O)c2cccnc2)cc1C [Compound I-1-67],100%
2,O=C(Nc1ccn(-c2ccc(F)cc2F)n1)c1cccnc1 [Compound I-1-85],100%

# Same assay, conditions: application rate of 30 ppm in nutrient medium; 100% = all animals killed
row,Structure (SMILES),efficacy (kill in %)
1,COC(=O)CCCn1nc(NC(=O)c2cccnc2)cc1C [Compound I-1-67],100%
2,O=C(Nc1ccn(Cc2ccc(Cl)cc2Cl)n1)c1cccnc1 [Compound I-1-82],100%
3,O=C(Nc1ccn(-c2ccc(F)cc2F)n1)c1cccnc1 [Compound I-1-85],100%
4,CCn1nnc(NC(=O)c2cccnc2)n1 [Compound I-4-1],100%
5,CCOC(=O)Cn1ccc(NC(=O)c2cccnc2)n1 [Compound I-1-69],100%
